Source: ChEMBL document CHEMBL5303573, “Mapping human microbiome drug metabolism by gut bacteria and their genes” (Nature, 2019)

What was measured:
[1] = The drug is tested on Ruminococcus lactaris strain: ATCC29176 for biotransformation. The drug concentrations were measured before and after a 12-h incubation by liquid-chromatography-coupled mass spectrometry (LC–MS); details: 2 µM
[2] = The drug is tested on Clostridium ramosum strain: DSM1402 for biotransformation. The drug concentrations were measured before and after a 12-h incubation by liquid-chromatography-coupled mass spectrometry (LC–MS); details: thomasclavelia ramosa, 2 µM
[3] = The drug is tested on Bacteroides fragilis strain: HMW610 for biotransformation. The drug concentrations were measured before and after a 12-h incubation by liquid-chromatography-coupled mass spectrometry (LC–MS); details: 2 µM
[4] = The drug is tested on Eggerthella lenta strain: ATCC25559 for biotransformation. The drug concentrations were measured before and after a 12-h incubation by liquid-chromatography-coupled mass spectrometry (LC–MS); details: 2 µM
[5] = The drug is tested on Bacteroides xylanisolvens strain: DSM18836 for biotransformation. The drug concentrations were measured before and after a 12-h incubation by liquid-chromatography-coupled mass spectrometry (LC–MS); details: 2 µM
[6] = The drug is tested on Clostridium symbiosum strain: ATCC14940 for biotransformation. The drug concentrations were measured before and after a 12-h incubation by liquid-chromatography-coupled mass spectrometry (LC–MS); details: 2 µM
[7] = The drug is tested on Edwardsiella tarda strain: ATCC23685 for biotransformation. The drug concentrations were measured before and after a 12-h incubation by liquid-chromatography-coupled mass spectrometry (LC–MS); details: 2 µM
[8] = The drug is tested on Bacteroides ovatus strain: ATCC8483 for biotransformation. The drug concentrations were measured before and after a 12-h incubation by liquid-chromatography-coupled mass spectrometry (LC–MS); details: 2 µM
[9] = The drug is tested on Providencia stuartii strain: ATCC25827 for biotransformation. The drug concentrations were measured before and after a 12-h incubation by liquid-chromatography-coupled mass spectrometry (LC–MS); details: 2 µM
[10] = The drug is tested on Bacteroides uniformis strain: ATCC8492 for biotransformation. The drug concentrations were measured before and after a 12-h incubation by liquid-chromatography-coupled mass spectrometry (LC–MS); details: 2 µM
[11] = The drug is tested on Bacteroides cellulosilyticus strain: DSM14838 for biotransformation. The drug concentrations were measured before and after a 12-h incubation by liquid-chromatography-coupled mass spectrometry (LC–MS); details: 2 µM
[12] = The drug is tested on Dorea formicigenerans strain: ATCC27755 for biotransformation. The drug concentrations were measured before and after a 12-h incubation by liquid-chromatography-coupled mass spectrometry (LC–MS); details: 2 µM
[13] = The drug is tested on Bacteroides sp. WH2 strain: WH2 for biotransformation. The drug concentrations were measured before and after a 12-h incubation by liquid-chromatography-coupled mass spectrometry (LC–MS); details: bacteroides sp. wh2, 12 h, 2 µM
[14] = roseburia intestinalis, 12 h, 2 µM
Description: The drug is tested on Roseburia intestinalis strain: L1-82 for biotransformation. The drug concentrations were measured before and after a 12-h incubation by liquid-chromatography-coupled mass spectrometry (LC–MS)

[15] = anaerostipes sp., 12 h, 2 µM
Description: The drug is tested on Anaerostipes sp. strain: fecal isolate for biotransformation. The drug concentrations were measured before and after a 12-h incubation by liquid-chromatography-coupled mass spectrometry (LC–MS)

[16] = The drug is tested on Ruminococcus torques strain: ATCC27756 for biotransformation. The drug concentrations were measured before and after a 12-h incubation by liquid-chromatography-coupled mass spectrometry (LC–MS); type: ADME; design: dose 2 uM, timepoint 0 vs 12 hours; details: 2 µM
[17] = The drug is tested on Odoribacter splanchnicus strain: fecal isolate for biotransformation. The drug concentrations were measured before and after a 12-h incubation by liquid-chromatography-coupled mass spectrometry (LC–MS); details: 2 µM
[18] = The drug is tested on Clostridium asparagiforme strain: DSM15981 for biotransformation. The drug concentrations were measured before and after a 12-h incubation by liquid-chromatography-coupled mass spectrometry (LC–MS); type: ADME; design: dose 2 uM, timepoint 0 vs 12 hours; details: enterocloster asparagiformis, 2 µM
[19] = The drug is tested on Providencia rettgeri strain: DSM1131 for biotransformation. The drug concentrations were measured before and after a 12-h incubation by liquid-chromatography-coupled mass spectrometry (LC–MS); type: ADME; design: dose 2 uM, timepoint 0 vs 12 hours; details: 2 µM
[20] = The drug is tested on Alistipes indistinctus strain: DSM22520 for biotransformation. The drug concentrations were measured before and after a 12-h incubation by liquid-chromatography-coupled mass spectrometry (LC–MS); details: 2 µM
[21] = The drug is tested on Anaerococcus hydrogenalis strain: DSM7454 for biotransformation. The drug concentrations were measured before and after a 12-h incubation by liquid-chromatography-coupled mass spectrometry (LC–MS); details: 2 µM
[22] = The drug is tested on Eubacterium hallii strain: DSM3353 for biotransformation. The drug concentrations were measured before and after a 12-h incubation by liquid-chromatography-coupled mass spectrometry (LC–MS); details: anaerobutyricum hallii, 2 µM
[23] = The drug is tested on Coprococcus comes strain: ATCC27758 for biotransformation. The drug concentrations were measured before and after a 12-h incubation by liquid-chromatography-coupled mass spectrometry (LC–MS); type: ADME; design: dose 2 uM, timepoint 0 vs 12 hours; details: 2 µM
[24] = The drug is tested on Collinsella aerofaciens strain: ATCC25986 for biotransformation. The drug concentrations were measured before and after a 12-h incubation by liquid-chromatography-coupled mass spectrometry (LC–MS); details: 2 µM
[25] = bacteroides thetaiotaomicron, 12 h, 2 µM
Description: The drug is tested on Bacteroides thetaiotaomicron strain: 7330 for biotransformation. The drug concentrations were measured before and after a 12-h incubation by liquid-chromatography-coupled mass spectrometry (LC–MS)

[26] = The drug is tested on Bacteroides finegoldii strain: DSM17565 for biotransformation. The drug concentrations were measured before and after a 12-h incubation by liquid-chromatography-coupled mass spectrometry (LC–MS); details: 2 µM
[27] = parabacteroides distasonis, 12 h, 2 µM
Description: The drug is tested on Parabacteroides distasonis strain: ATCC8503 for biotransformation. The drug concentrations were measured before and after a 12-h incubation by liquid-chromatography-coupled mass spectrometry (LC–MS)

[28] = bacteroides stercoris, 12 h, 2 µM
Description: The drug is tested on Bacteroides stercoris strain: ATCC43183 for biotransformation. The drug concentrations were measured before and after a 12-h incubation by liquid-chromatography-coupled mass spectrometry (LC–MS)

[29] = bifidobacterium adolescentis, 12 h, 2 µM
Description: The drug is tested on Bifidobacterium adolescentis strain: ATCC 15703 for biotransformation. The drug concentrations were measured before and after a 12-h incubation by liquid-chromatography-coupled mass spectrometry (LC–MS)

[30] = The drug is tested on Escherichia coli strain: BW25113 for biotransformation. The drug concentrations were measured before and after a 12-h incubation by liquid-chromatography-coupled mass spectrometry (LC–MS); details: 2 µM
[31] = The drug is tested on Bacteroides dorei strain: DSM17855 for biotransformation. The drug concentrations were measured before and after a 12-h incubation by liquid-chromatography-coupled mass spectrometry (LC–MS); details: phocaeicola dorei, 2 µM
[32] = The drug is tested on Ruminococcus gnavus strain: ATCC29149 for biotransformation. The drug concentrations were measured before and after a 12-h incubation by liquid-chromatography-coupled mass spectrometry (LC–MS); details: mediterraneibacter gnavus, 2 µM
[33] = The drug is tested on Bifidobacterium ruminantium strain: fecal isolate for biotransformation. The drug concentrations were measured before and after a 12-h incubation by liquid-chromatography-coupled mass spectrometry (LC–MS); details: 2 µM
[34] = The drug is tested on Eubacterium ventriosum strain: ATCC27560 for biotransformation. The drug concentrations were measured before and after a 12-h incubation by liquid-chromatography-coupled mass spectrometry (LC–MS); type: ADME; design: dose 2 uM, timepoint 0 vs 12 hours; details: 2 µM
[35] = The drug is tested on Bifidobacterium longum subsp. Infantis strain: CCUG52486 for biotransformation. The drug concentrations were measured before and after a 12-h incubation by liquid-chromatography-coupled mass spectrometry (LC–MS); details: 2 µM
[36] = akkermansia muciniphila, 12 h, 2 µM
Description: The drug is tested on Akkermansia muciniphila strain: ATCC BAA-835 for biotransformation. The drug concentrations were measured before and after a 12-h incubation by liquid-chromatography-coupled mass spectrometry (LC–MS)

[37] = The drug is tested on Clostridium scindens strain: ATCC35704 for biotransformation. The drug concentrations were measured before and after a 12-h incubation by liquid-chromatography-coupled mass spectrometry (LC–MS); details: 2 µM
[38] = The drug is tested on Enterobacter cancerogenus strain: ATCC35316 for biotransformation. The drug concentrations were measured before and after a 12-h incubation by liquid-chromatography-coupled mass spectrometry (LC–MS); details: 2 µM
[39] = bacteroides fragilis, 12 h, 2 µM
Description: The drug is tested on Bacteroides fragilis strain: NCTC 9343 for biotransformation. The drug concentrations were measured before and after a 12-h incubation by liquid-chromatography-coupled mass spectrometry (LC–MS)

[40] = The drug is tested on Bacteroides vulgatus strain: ATCC8482 for biotransformation. The drug concentrations were measured before and after a 12-h incubation by liquid-chromatography-coupled mass spectrometry (LC–MS); details: phocaeicola vulgatus, 2 µM
[41] = bacteroides intestinalis, 12 h, 2 µM
Description: The drug is tested on Bacteroides intestinalis strain: DSM17393 for biotransformation. The drug concentrations were measured before and after a 12-h incubation by liquid-chromatography-coupled mass spectrometry (LC–MS)

[42] = The drug is tested on Bifidobacterium breve strain: DSM20213 for biotransformation. The drug concentrations were measured before and after a 12-h incubation by liquid-chromatography-coupled mass spectrometry (LC–MS); details: 2 µM

## CCCc1nc2c(C)cc(-c3nc4ccccc4n3C)cc2n1Cc1ccc(-c2ccccc2C(=O)O)cc1
[1]
  Bacterial Biotransformation: Compound NOT metabolized
[2]
  Bacterial Biotransformation: Compound NOT metabolized
[3]
  Bacterial Biotransformation: Compound metabolized
[4]
  Bacterial Biotransformation: Compound NOT metabolized
[5]
  Bacterial Biotransformation: Compound metabolized
[6]
  Bacterial Biotransformation: Compound NOT metabolized
[7]
  Bacterial Biotransformation: Compound NOT metabolized
[8]
  Bacterial Biotransformation: Compound metabolized
[9]
  Bacterial Biotransformation: Compound NOT metabolized
[10]
  Bacterial Biotransformation: Compound metabolized
[11]
  Bacterial Biotransformation: Compound metabolized
[12]
  Bacterial Biotransformation: Compound NOT metabolized
[13]
  Bacterial Biotransformation: Compound metabolized
[14]
  Bacterial Biotransformation: Compound NOT metabolized
[15]
  Bacterial Biotransformation: Compound NOT metabolized
[16]
  Bacterial Biotransformation: Compound NOT metabolized
[17]
  Bacterial Biotransformation: Compound metabolized
[18]
  Bacterial Biotransformation: Compound NOT metabolized
[19]
  Bacterial Biotransformation: Compound NOT metabolized
[20]
  Bacterial Biotransformation: Compound NOT metabolized
[21]
  Bacterial Biotransformation: Compound NOT metabolized
[22]
  Bacterial Biotransformation: Compound NOT metabolized
[23]
  Bacterial Biotransformation: Compound NOT metabolized
[24]
  Bacterial Biotransformation: Compound NOT metabolized
[25]
  Bacterial Biotransformation: Compound metabolized
[26]
  Bacterial Biotransformation: Compound NOT metabolized
[27]
  Bacterial Biotransformation: Compound metabolized
[28]
  Bacterial Biotransformation: Compound metabolized
[29]
  Bacterial Biotransformation: Compound NOT metabolized
[30]
  Bacterial Biotransformation: Compound NOT metabolized
[31]
  Bacterial Biotransformation: Compound metabolized
[32]
  Bacterial Biotransformation: Compound NOT metabolized
[33]
  Bacterial Biotransformation: Compound NOT metabolized
[34]
  Bacterial Biotransformation: Compound NOT metabolized
[35]
  Bacterial Biotransformation: Compound NOT metabolized
[36]
  Bacterial Biotransformation: Compound NOT metabolized
[37]
  Bacterial Biotransformation: Compound NOT metabolized
[38]
  Bacterial Biotransformation: Compound NOT metabolized
[39]
  Bacterial Biotransformation: Compound metabolized
[40]
  Bacterial Biotransformation: Compound metabolized
[41]
  Bacterial Biotransformation: Compound NOT metabolized
[42]
  Bacterial Biotransformation: Compound NOT metabolized
